Here are results for 11 compounds from patent US9796711B2, “Substituted pyrazolo[3,4-b]pyridin-6-carboxylic acids and method of use” (AbbVie S.àr.l., priority 2015, dated 2017).

The target in the assay is T1, ΔF508-CFTR (Homo sapiens, UniProt P13569, DEL508-508).
T1 construct: host or cells: CFBE41o-, doxycycline-inducible
Kind of assay: CFTR cell surface levels using HRP-tagged ΔF508-CFTR expressing CFBE cells, in the presence of a co-corrector. The settings on record: HRP-tagged ΔF508-CFTR expressing CFBE cells, in the presence of 3 μM co-corrector; for EC50: read-out: EC50. It counts as cell-based. The procedure, abridged:
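Cells were seeded with 0.5 μg/mL doxycycline and held 68 h at 37 °C. Test compounds plus 3 μM co-corrector (final 0.1% DMSO) were then added for 20 h at 33 °C. Washed cells received HRP substrate, and luminescence was normalized between DMSO and 3 μM co-corrector controls.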

The structures appear in SMILES notation.

As a reminder, the EC50 is the midpoint of the concentration-response curve.

T1 sequence (P13569 with tags, fused parts or gaps DEL508-508): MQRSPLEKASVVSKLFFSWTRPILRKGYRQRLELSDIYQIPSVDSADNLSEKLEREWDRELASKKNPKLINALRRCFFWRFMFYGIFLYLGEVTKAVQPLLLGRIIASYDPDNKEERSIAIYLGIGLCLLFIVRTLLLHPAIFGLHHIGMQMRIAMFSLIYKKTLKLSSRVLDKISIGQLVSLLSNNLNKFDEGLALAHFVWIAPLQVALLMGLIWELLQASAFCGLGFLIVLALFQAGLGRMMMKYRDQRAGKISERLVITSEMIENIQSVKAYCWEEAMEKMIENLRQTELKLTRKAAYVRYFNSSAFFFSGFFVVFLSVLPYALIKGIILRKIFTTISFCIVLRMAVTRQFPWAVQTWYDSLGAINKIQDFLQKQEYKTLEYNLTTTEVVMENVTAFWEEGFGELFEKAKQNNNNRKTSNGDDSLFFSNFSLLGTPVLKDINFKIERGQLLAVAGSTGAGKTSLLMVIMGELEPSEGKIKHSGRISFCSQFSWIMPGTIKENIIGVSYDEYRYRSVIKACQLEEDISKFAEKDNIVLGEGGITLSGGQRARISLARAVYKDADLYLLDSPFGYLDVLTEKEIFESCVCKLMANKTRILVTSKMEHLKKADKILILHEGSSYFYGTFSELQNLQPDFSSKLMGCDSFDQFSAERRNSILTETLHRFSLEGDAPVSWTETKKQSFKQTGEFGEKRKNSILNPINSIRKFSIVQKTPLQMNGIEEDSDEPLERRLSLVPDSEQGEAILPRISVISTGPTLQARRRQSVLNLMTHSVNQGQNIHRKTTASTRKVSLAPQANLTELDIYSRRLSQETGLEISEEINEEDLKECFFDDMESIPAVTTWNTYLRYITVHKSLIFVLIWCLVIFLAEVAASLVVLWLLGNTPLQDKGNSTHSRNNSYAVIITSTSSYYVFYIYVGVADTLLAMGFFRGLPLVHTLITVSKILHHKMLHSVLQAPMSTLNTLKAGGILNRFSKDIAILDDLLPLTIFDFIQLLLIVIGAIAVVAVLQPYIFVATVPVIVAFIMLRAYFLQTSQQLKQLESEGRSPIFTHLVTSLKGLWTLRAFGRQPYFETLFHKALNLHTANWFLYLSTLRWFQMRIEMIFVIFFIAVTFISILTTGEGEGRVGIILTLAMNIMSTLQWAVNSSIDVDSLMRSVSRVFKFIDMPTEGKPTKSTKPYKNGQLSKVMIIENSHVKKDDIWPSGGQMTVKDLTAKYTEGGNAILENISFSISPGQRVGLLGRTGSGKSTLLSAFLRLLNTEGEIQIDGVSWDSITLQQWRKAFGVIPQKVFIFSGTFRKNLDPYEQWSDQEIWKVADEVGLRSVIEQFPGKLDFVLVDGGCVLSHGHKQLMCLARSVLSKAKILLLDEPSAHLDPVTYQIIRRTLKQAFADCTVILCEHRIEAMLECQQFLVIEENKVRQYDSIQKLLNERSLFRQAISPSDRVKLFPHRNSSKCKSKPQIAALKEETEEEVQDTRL

On to `O=C(O)c1cc(N2CCC(C3CCN(C4COC4)CC3)CC2)c2c(C3CCC3)nn(-c3ccccc3)c2n1` [compound 736, 3-cyclobutyl-4-[1′-(oxetan-3-yl)[4,4′-bipiperidin]-1-yl]-1-phenyl-1H-pyrazolo[3,4-b]pyridine-6-carboxylic acid], for which the “% Activation” value stood at 511.6% and the EC50 was determined as 0.0422 µM.
The like results for `Cc1nn(-c2ccccc2)c2nc(C(=O)O)cc(-c3ccc(N4CCC(C#N)CC4)cc3)c12` [compound 109, 4-[4-(4-cyanopiperidin-1-yl)phenyl]-3-methyl-1-phenyl-1H-pyrazolo[3,4-b]pyridine-6-carboxylic acid] were, in that order, 398.15% and 0.752 µM.
Consider `CC(=O)N1CCN(c2cc(C(=O)O)nc3c2c(C2CCC2)nn3-c2ccccc2)CC1` [compound 703, 4-(4-acetylpiperazin-1-yl)-3-cyclobutyl-1-phenyl-1H-pyrazolo[3,4-b]pyridine-6-carboxylic acid], for which the “% Activation” value is 374.6% and the EC50 stood at 0.386 µM.
Take `CC(C)c1nn(-c2ccc(F)cc2)c2nc(C(=O)O)cc(OCCCN(C)C)c12` [compound 606, 4-[3-(dimethylamino)propoxy]-1-(4-fluorophenyl)-3-(propan-2-yl)-1H-pyrazolo[3,4-b]pyridine-6-carboxylic acid]: the “% Activation” value is given as 199.7% and the half-maximal effective concentration (EC50) is 1.77 µM.
On the same counts, the results for `O=C(O)c1cc(N2CCC3(CC2)OCCO3)c2c(C3CCC3)nn(-c3ccccc3)c2n1` [compound 700, 3-cyclobutyl-4-(1,4-dioxa-8-azaspiro[4.5]decan-8-yl)-1-phenyl-1H-pyrazolo[3,4-b]pyridine-6-carboxylic acid] are 290.9% and 0.128 µM.
The like results for `COCCCN1CCN(c2cc(C(=O)O)nc3c2c(C2CCC2)nn3-c2ccccc2)CC1` [compound 704, 3-cyclobutyl-4-[4-(3-methoxypropyl)piperazin-1-yl]-1-phenyl-1H-pyrazolo[3,4-b]pyridine-6-carboxylic acid] were, in that order, 344.1% and 0.409 µM.
As for `CCCN1CCN(c2cc(C(=O)O)nc3c2c(C2CCC2)nn3-c2ccccc2)CC1` [compound 707, 3-cyclobutyl-1-phenyl-4-(4-propylpiperazin-1-yl)-1H-pyrazolo[3,4-b]pyridine-6-carboxylic acid], the “% Activation” value was determined as 326.3% and the EC50 came out at 0.341 µM.
The like results for `CC(C)c1nn(-c2ccc(F)cc2)c2nc(C(=O)O)cc(OCC3CCCO3)c12` (stereo not shown) [compound 609, 1-(4-fluorophenyl)-4-[(oxolan-2-yl)methoxy]-3-(propan-2-yl)-1H-pyrazolo[3,4-b]pyridine-6-carboxylic acid] were, in that order, 336.4% and 1.04 µM.
On the same counts, the results for `CC(C)(C)c1nn(-c2ccccc2)c2nc(C(=O)O)cc(-c3ccc(N4CCOCC4)cc3)c12` [compound 40, 3-tert-butyl-4-[4-(morpholin-4-yl)phenyl]-1-phenyl-1H-pyrazolo[3,4-b]pyridine-6-carboxylic acid] are 340.8% and 0.393 µM.
On the same counts, the results for `CN1CC(Oc2cc(C(=O)O)nc3c2c(C2CCC2)nn3-c2ccccc2)C1` [compound 601, 3-cyclobutyl-4-[(1-methylazetidin-3-yl)oxy]-1-phenyl-1H-pyrazolo[3,4-b]pyridine-6-carboxylic acid] are 173.6% and 2.48 µM.
For the compound `CC(C)c1nn(-c2ccc(F)cc2)c2nc(C(=O)O)cc(N3CCC(N(C)C)CC3)c12` [compound 660, 4-[4-(dimethylamino)piperidin-1-yl]-1-(4-fluorophenyl)-3-(propan-2-yl)-1H-pyrazolo[3,4-b]pyridine-6-carboxylic acid], the “% Activation” value is on record as 284.47% and the EC50 was 3.33 µM.
